Measured values reported in article PMC5853558, “De novo identification of lipid II binding lipopeptides with antibacterial activity against vancomycin-resistant bacteria” (Chemical Science, 2017).
Values after ≈ are worked out from the molar mass of the structure shown. *1 amine or outer side, *2 acyl side, *3 side chain or, on linkers, in order; H or OH if unused. Where a SMILES comes first, the peptide text is derived from it. Bridges are numbered along the chain shown (N, C = ends). [ ]: non-standard residue; d: D form. The star is where a group is joined. TBMB = c1c(C[*:1])cc(C[*:3])cc1C[*:2]; NHDecyl = CCCCCCCCCCN*

System: M. luteus (NCTC2665)
Assay: microbe, parasite or virus in culture
Format: cell-based, Micrococcus luteus
Conditions: for MIC against M. luteus: Table 1, non-lipidated bicyclic peptides, broth microdilution in TSB, 16 h, read visually, n.a. = no activity, highest tested concentration 512 μg mL^–1; for MIC of Ala scan of P8-D against M. luteus: Supplemental table S8, non-lipidated P8 variants, broth microdilution, highest tested 512 µg/ml
Experimental: Section 4 Biological and biochemical experiments
4.1 Minimum inhibitory concentration assay
MIC values were determined by using the broth microdilution method. Peptides were dissolved first in DMSO and diluted with broth so that the final peptide concentration was 1024 µg/ml and the DMSO concentration was 4%. Peptide serial dilutions were made in TSB in a polypropylene 96-wells plate using 50 µl volumes. An overnight culture of the organism of interest was diluted to and OD600 of 0.01 and grown until they reach 0.5. The culture was then diluted to 1 x 10^6 CFU/ml and 50 µl of this suspension was added to each well. The highest concentrations were then 512 µg/ml peptide and 2% DMSO. The plates were incubated at the preferred growth temperature of the organism that was used and 250 rpm. […] When […]
determining the MICs of the lipidated peptides, the lipopeptides were first dissolved in DMSO and diluted with TSB so that the peptide concentration was 128 µg/ml and the DMSO concentration was 4%. After inoculation the highest peptide concentration evaluated was 64 µg/ml and the DMSO concentration was 2%. A DMSO control was tested for each strain to ensure the DMSO did not affect the growth of the particular strain. […]

Row | Compound | MIC of Ala scan of P8-D against M. luteus | also measured
1 | CC[C@H](C)[C@@H]1NC(=O)[C@@H]2CSCc3cc(cc(c3)CSC[C@@H](C(=O)NCC(N)=O)NC(=O)[C@H](CCCNC(=N)N)NC(=O)[C@H]([C@@H](C)CC)NC(=O)[C@H](CC(N)=O)NC(=O)[C@H](C)NC(=O)[C@H](CO)NC1=O)CSC[C@H](NC(=O)[C@H](C)N)C(=O)N[C@@H](CCCNC(=N)N)C(=O)N1CCC[C@H]1C(=O)N[C@@H](CCC(N)=O)C(=O)N[C@@H](CCCCN)C(=O)N[C@@H](Cc1ccccc1)C(=O)N[C@@H](CC(N)=O)C(=O)N2 [Peptide P4] (H-ACRPQKFNCISANIRCG-NH2; linker 2-9-16 via TBMB; N-terminus assumed) |  | MIC against M. luteus: 64 μg mL^–1
2 | CCCCCCCCCCNC(=O)CNC(=O)[C@@H]1CSCc2cc3cc(c2)CSC[C@H](NC(=O)[C@H](Cc2ccc(O)cc2)NC(=O)[C@H](Cc2c[nH]c4ccccc24)NC(=O)[C@H](CC(=O)O)NC(=O)[C@H](C(C)C)NC(=O)[C@@H]2CCCN2C(=O)[C@H](Cc2ccc(O)cc2)NC(=O)[C@@H](NC(=O)[C@H](C)N)CSC3)C(=O)N[C@@H](CC(C)C)C(=O)N[C@@H](Cc2ccccc2)C(=O)N[C@@H](CCC(N)=O)C(=O)N[C@@H]([C@@H](C)O)C(=O)N[C@@H](C(C)C)C(=O)N[C@@H](CC(=O)O)C(=O)N1 [Peptide P6-C10] (H-ACYPVDWYCLFQTVDCG-NHDecyl; linker 2-9-16 via TBMB; N-terminus assumed) |  | MIC M. luteus (Supplemental table S6, lipidated phage display hits, n.a. = not active, highest tested conc 64 µg/ml): 2 µg/mL (≈ 0.894 µM)
3 | CC(C)C[C@@H]1NC(=O)[C@@H]2CSCc3cc(cc(c3)CSC[C@@H](C(=O)NCC(N)=O)NC(=O)[C@H](CC(=O)O)NC(=O)[C@H](C(C)C)NC(=O)[C@H]([C@@H](C)O)NC(=O)[C@H](CCC(N)=O)NC(=O)[C@H](Cc3ccccc3)NC1=O)CSC[C@H](NC(=O)[C@H](C)N)C(=O)N[C@@H](Cc1ccc(O)cc1)C(=O)N1CCC[C@H]1C(=O)N[C@@H](C(C)C)C(=O)N[C@@H](CC(=O)O)C(=O)N[C@@H](Cc1c[nH]c3ccccc13)C(=O)N[C@@H](Cc1ccc(O)cc1)C(=O)N2 [Peptide P6] (H-ACYPVDWYCLFQTVDCG-NH2; linker 2-9-16 via TBMB; N-terminus assumed) |  | MIC against M. luteus: 128 μg mL^–1
4 | CC(C)C[C@H]1NC(=O)[C@H](NC(=O)[C@@H](C)N)CSCc2cc3cc(c2)CSC[C@@H](NC(=O)[C@@H](CC(C)C)NC(=O)[C@@H](CC(C)C)NC(=O)[C@@H](CO)NC(=O)[C@@H](CCC(N)=O)NC(=O)[C@@H](CC(C)C)NC1=O)C(=O)N1CCC[C@@H]1C(=O)N[C@H](Cc1ccc(O)cc1)C(=O)N[C@H](CO)C(=O)N[C@H]([C@H](C)O)C(=O)N[C@H](C)C(=O)N[C@H](CCCNC(=N)N)C(=O)N[C@@H](C(=O)NCC(N)=O)CSC3 [Peptide P8-D-H14A] (H-[dA][dC][dL][dL][dQ][dS][dL][dL][dC][dP][dY][dS][dT][dA][dR][dC]G-NH2; linker 2-9-16 via TBMB; N-terminus assumed) | 64 to 128 µg/mL | 
5 | CC(C)C[C@H]1NC(=O)[C@@H](C)NC(=O)[C@H](NC(=O)[C@@H](C)N)CSCc2cc3cc(c2)CSC[C@@H](NC(=O)[C@@H](CC(C)C)NC(=O)[C@@H](CC(C)C)NC(=O)[C@@H](CO)NC(=O)[C@@H](CCC(N)=O)NC1=O)C(=O)N1CCC[C@@H]1C(=O)N[C@H](Cc1ccc(O)cc1)C(=O)N[C@H](CO)C(=O)N[C@H]([C@H](C)O)C(=O)N[C@H](Cc1c[nH]cn1)C(=O)N[C@H](CCCNC(=N)N)C(=O)N[C@@H](C(=O)NCC(N)=O)CSC3 [Peptide P8-D-L3A] (H-[dA][dC][dA][dL][dQ][dS][dL][dL][dC][dP][dY][dS][dT][dH][dR][dC]G-NH2; linker 2-9-16 via TBMB; N-terminus assumed) | > 512 µg/mL | 
6 | CC(C)C[C@H]1NC(=O)[C@H](NC(=O)[C@@H](C)N)CSCc2cc3cc(c2)CSC[C@@H](NC(=O)[C@@H](CC(C)C)NC(=O)[C@@H](CC(C)C)NC(=O)[C@@H](CO)NC(=O)[C@@H](CCC(N)=O)NC(=O)[C@@H](C)NC1=O)C(=O)N1CCC[C@@H]1C(=O)N[C@H](Cc1ccc(O)cc1)C(=O)N[C@H](CO)C(=O)N[C@H]([C@H](C)O)C(=O)N[C@H](Cc1c[nH]cn1)C(=O)N[C@H](CCCNC(=N)N)C(=O)N[C@@H](C(=O)NCC(N)=O)CSC3 [Peptide P8-D-L4A] (H-[dA][dC][dL][dA][dQ][dS][dL][dL][dC][dP][dY][dS][dT][dH][dR][dC]G-NH2; linker 2-9-16 via TBMB; N-terminus assumed) | > 512 µg/mL | 
7 | CC(C)C[C@H]1NC(=O)[C@@H](C)NC(=O)[C@@H](CO)NC(=O)[C@@H](CCC(N)=O)NC(=O)[C@@H](CC(C)C)NC(=O)[C@@H](CC(C)C)NC(=O)[C@H](NC(=O)[C@@H](C)N)CSCc2cc3cc(c2)CSC[C@@H](NC1=O)C(=O)N1CCC[C@@H]1C(=O)N[C@H](Cc1ccc(O)cc1)C(=O)N[C@H](CO)C(=O)N[C@H]([C@H](C)O)C(=O)N[C@H](Cc1c[nH]cn1)C(=O)N[C@H](CCCNC(=N)N)C(=O)N[C@@H](C(=O)NCC(N)=O)CSC3 [Peptide P8-D-L7A] (H-[dA][dC][dL][dL][dQ][dS][dA][dL][dC][dP][dY][dS][dT][dH][dR][dC]G-NH2; linker 2-9-16 via TBMB; N-terminus assumed) | 512 µg/mL | 
8 | CC(C)C[C@H]1NC(=O)[C@@H](CO)NC(=O)[C@@H](CCC(N)=O)NC(=O)[C@@H](CC(C)C)NC(=O)[C@@H](CC(C)C)NC(=O)[C@H](NC(=O)[C@@H](C)N)CSCc2cc3cc(c2)CSC[C@@H](NC(=O)[C@@H](C)NC1=O)C(=O)N1CCC[C@@H]1C(=O)N[C@H](Cc1ccc(O)cc1)C(=O)N[C@H](CO)C(=O)N[C@H]([C@H](C)O)C(=O)N[C@H](Cc1c[nH]cn1)C(=O)N[C@H](CCCNC(=N)N)C(=O)N[C@@H](C(=O)NCC(N)=O)CSC3 [Peptide P8-D-L8A] (H-[dA][dC][dL][dL][dQ][dS][dL][dA][dC][dP][dY][dS][dT][dH][dR][dC]G-NH2; linker 2-9-16 via TBMB; N-terminus assumed) | 128 to 256 µg/mL | 
9 | CC(C)C[C@H]1NC(=O)[C@H](NC(=O)[C@@H](C)N)CSCc2cc3cc(c2)CSC[C@@H](NC(=O)[C@@H](CC(C)C)NC(=O)[C@@H](CC(C)C)NC(=O)[C@@H](CO)NC(=O)[C@@H](CCC(N)=O)NC(=O)[C@@H](CC(C)C)NC1=O)C(=O)N[C@H](C)C(=O)N[C@H](Cc1ccc(O)cc1)C(=O)N[C@H](CO)C(=O)N[C@H]([C@H](C)O)C(=O)N[C@H](Cc1c[nH]cn1)C(=O)N[C@H](CCCNC(=N)N)C(=O)N[C@@H](C(=O)NCC(N)=O)CSC3 [Peptide P8-D-P10A] (H-[dA][dC][dL][dL][dQ][dS][dL][dL][dC][dA][dY][dS][dT][dH][dR][dC]G-NH2; linker 2-9-16 via TBMB; N-terminus assumed) | 128 µg/mL | 
10 | CC(C)C[C@H]1NC(=O)[C@@H](CC(C)C)NC(=O)[C@H](NC(=O)[C@@H](C)N)CSCc2cc3cc(c2)CSC[C@@H](NC(=O)[C@@H](CC(C)C)NC(=O)[C@@H](CC(C)C)NC(=O)[C@@H](CO)NC(=O)[C@@H](C)NC1=O)C(=O)N1CCC[C@@H]1C(=O)N[C@H](Cc1ccc(O)cc1)C(=O)N[C@H](CO)C(=O)N[C@H]([C@H](C)O)C(=O)N[C@H](Cc1c[nH]cn1)C(=O)N[C@H](CCCNC(=N)N)C(=O)N[C@@H](C(=O)NCC(N)=O)CSC3 [Peptide P8-D-Q5A] (H-[dA][dC][dL][dL][dA][dS][dL][dL][dC][dP][dY][dS][dT][dH][dR][dC]G-NH2; linker 2-9-16 via TBMB; N-terminus assumed) | > 512 µg/mL | 
